Consider one molecule from patent US12134664B2, “Muramyl peptide derivatives” (Bharat Biotech International Limited, priority 2015, dated 2024).

One data set deals with Wistar rats. As to the kind of experiment: Maximum Tolerated Dose test. Format: in vivo. Here is the method:
This particular beneficial property was evidenced by Maximum Tolerated Dose test done using rat as an animal model.
Maximum Tolerated Dose test: Wistar rats (n=6, 3M & 3F) were administered intramuscularly (i.m) with MDP-ET containing fixed adjuvant dose of 10, 50 and 100 μg/animal/200 μl in an ascending manner. Animals were observed daily for a period of 14 days for clinical signs & mortality. Body weight was measured daily. Food and water consumed by animals were also monitored daily for any abnormalities & food and water intake per animal was also calculated. Body temperature was measured for every 4 hours up to 24 hrs, later once in daily up to 7 days and then followed by alternate day up to day 14. Rats were sacrificed on day 14 and organs/tissues such as site of injection, spleen, thymus, brain, lungs, Heart, liver, Kidney were collected and done macroscopic examination. […] It indicates rats are tolerable even at high dose (100 μg/animal). Blood was collected between 24-36 hrs were tested for CRP levels, after the injection. Higher (600-1000 μg/ml, normal range 200-550 μg/ml in rats) CRP levels were found at higher dose (100 μg/animal).
However, due to moderate or high levels of IL-6 levels as found in In-vitro pyrogenicity test, it can be concluded that MDP-ET may be pyrogenic at tested high concentration (100 μg/animal), which in turn correlated with high levels of CRP found immediately after giving dose.

Data set [1] deals with rPvRII specific IgG antibody. Nature of the data set: Endpoint titer of rPvRII specific IgG by ELISA after immunization. Format: in vivo, mouse. (An ELISA detects its analyte on a solid surface through an enzyme-linked reagent.)
Data set [2] concerns IgG isotypes (IgG1, IgG2a & IgG3) raised against HBsAg. Nature of the data set: TH1:TH2 index from HBsAg specific IgG isotypes. In kind it is in vivo, BALB/c mice. The conditions noted are these: HBsAg in the presence of MDP-ET (10 & 50 μg/mouse). The text has this: It is known that IgG subclasses produced after the immunization against given antigen, primarily determines the function of the antibody or indirectly measures the relative contribution of TH1 versus TH2 type cytokine induction. More specifically, production of IgG1 antibodies induces TH2 type cytokines, whereas production of IgG2a & IgG3 antibodies induces TH1 type cytokines. […] In this context, in the present invention, we determined the levels of IgG isotypes (IgG1, IgG2a & IgG3), raised against HBsAg in the presence or absence of MDP-ET (at 10 μg/mouse & 50 μg/mouse) and calculated TH1:TH2 index then calculated as ([IgG2a+IgG3]/2)/(IgG1). Details of assay protocol as described below as in example 3.1.3. According to such calculation, an index value less than 1 stands for a TH2 polarization; an index value greater than 1 stands for a TH1 polarization.
Analysis of antigen specific IgG antibody subclasses (isotypes namely IgG1 or IgG2a or IgG3) was performed as mentioned in example 3.1.2, except at one step, where goat anti-mouse IgG1 or IgG2a or IgG3 HRP was used at a dilution of 1:5000 (in place of goat anti-mouse IgG) TH1:TH2 index obtained at 10 & 50 μg/mouse of MDP-ET is as shown in FIG. 5c.

Another data set concerns the target T1, human NOD2 (Homo sapiens, UniProt Q9HC29).
T1 construct: host or cells: HEK-Blue Human NOD2 reporter cells (HEK 293)
Nature of the data set: NOD2 specific reporter assay (SEAP, Quanti blue). In kind it is cell-based. The conditions noted are these: HEK-Blue Human NOD2 reporter cells, 24-72 hrs, read-out: EC50 (half maximal response) (converted). As for the experimental part: Muramyl dipeptide molecules have the ability to bind to NOD2 receptors that are present on the surface of the immune cells, so as to stimulate immune response. NOD2 (Nucleotide oligomerization domain) receptor is an intracellular pattern recognition receptor (PRRs) recognizes muramyl dipeptide derivatives and stimulates cascade of signaling pathways to induce immune response. […] These cells were prepared by co-transfection of human NOD2 gene and codon-optimized SEAP (secreted embryonic alkaline phosphatase) reporter gene into HEK 293 cells. Upon stimulation of cells with muramyl dipeptide derivative, NFkB gets activated, which inturn secrets SEAP and it was measured in cell supernatant. Experimental details of this in-vitro assay are given as example 2.1.
HEK—Blue Human NOD2 reporter cells (5×10^4/well) were plated and cultured overnight in a humidified CO2 incubator at 37° C. Next day, cells were treated with various concentrations of MDP-ET, (0.001 mg/ml to 1 mg/ml) and cultured for 24-72 hrs. Supernatant was collected and treated with Quanti blue detection reagent at 37° C. for 15-30 min. Absorbance was read at 630 nm. […] To generate dose response curve, highest absorbance shown at tested concentration was taken as 100% response and the least absorbance was taken as 0% response. […]

SMILES strings stand for the structures.

T1 sequence (Q9HC29 whole entry): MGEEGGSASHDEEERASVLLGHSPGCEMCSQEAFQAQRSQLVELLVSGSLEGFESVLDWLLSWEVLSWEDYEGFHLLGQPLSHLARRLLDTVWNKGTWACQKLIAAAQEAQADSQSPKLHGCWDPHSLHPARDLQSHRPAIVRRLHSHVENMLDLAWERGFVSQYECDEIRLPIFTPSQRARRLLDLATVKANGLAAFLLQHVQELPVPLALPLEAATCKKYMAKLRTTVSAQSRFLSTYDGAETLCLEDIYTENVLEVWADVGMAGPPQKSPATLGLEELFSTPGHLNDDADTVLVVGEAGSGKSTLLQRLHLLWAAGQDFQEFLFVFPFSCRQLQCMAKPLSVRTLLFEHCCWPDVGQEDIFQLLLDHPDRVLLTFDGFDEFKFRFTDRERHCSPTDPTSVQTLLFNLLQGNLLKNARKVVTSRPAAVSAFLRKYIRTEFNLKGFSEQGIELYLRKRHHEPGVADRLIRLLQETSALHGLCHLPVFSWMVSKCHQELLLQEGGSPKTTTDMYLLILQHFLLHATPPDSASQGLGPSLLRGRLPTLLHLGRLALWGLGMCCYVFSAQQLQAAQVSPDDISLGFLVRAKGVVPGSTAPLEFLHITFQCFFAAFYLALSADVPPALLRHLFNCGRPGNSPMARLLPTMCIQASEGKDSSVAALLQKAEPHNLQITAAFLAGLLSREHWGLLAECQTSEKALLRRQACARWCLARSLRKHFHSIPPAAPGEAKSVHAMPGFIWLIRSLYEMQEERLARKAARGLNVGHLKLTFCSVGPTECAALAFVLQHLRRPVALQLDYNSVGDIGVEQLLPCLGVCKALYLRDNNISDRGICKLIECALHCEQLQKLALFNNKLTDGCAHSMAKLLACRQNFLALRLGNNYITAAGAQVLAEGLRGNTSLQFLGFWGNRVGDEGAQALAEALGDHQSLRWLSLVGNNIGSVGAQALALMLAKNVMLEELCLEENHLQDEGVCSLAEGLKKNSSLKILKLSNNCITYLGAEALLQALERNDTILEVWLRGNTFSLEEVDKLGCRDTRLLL

For `CCOC(=O)N[C@H]1C(O)O[C@H](CO)[C@@H](O)[C@@H]1O[C@H](C)C(=O)N[C@@H](C)C(=O)N[C@H](CCC(=O)O)C(N)=O` (stereo partly drawn) [MDP-ET, (4R)-5-amino-4-((2S)-2-((2R)-2-(((3R,4R,5S,6R)-3-((ethoxycarbonyl)amino)-2,5-dihydroxy-6-(hydroxymethyl)tetrahydro-2H-pyran-4-yl)oxy)propanamido)propanamido)-5-oxopentanoic acid], the CRP levels was 600 to 1000 µg/mL with Wistar rats (100 μg/animal, blood 24-36 hrs after injection, normal range 200-550 μg/ml in rats) and “normal” in the data set on Wistar rats (after 14 days). The same molecule yielded a tolerated dose with Wistar rats (Wistar rats, i.m., 14 days observation) not below 100 μg/rat. Further, the “macroscopic examination of organs/tissues” value in the data set with Wistar rats (day 14, site of injection, spleen, thymus, brain, lungs, heart, liver, kidney) is given as “No significant lesions or abnormalities”. For the same molecule, the clinical signs result in the data set with Wistar rats (even at tested high dose (100 μg/animal), 14 days) is on record as “no significant clinical signs”. Further, the weight gain entry in the data set on Wistar rats (high dose (100 μg/animal), compared to untreated animals) was “weight gain is less”. Besides, the mortality entry in the data set on Wistar rats (i.m. 10, 50 and 100 μg/animal, 14 days) is “no mortality”. Moreover, in the data set with Wistar rats (up to 14 days), the body temperature result is “no temperature raise”. Also, the “increase of rPvRII specific IgG antibody titer versus rPvRII alone” value in data set [1] (MDP-ET 10 μg/mouse) turned out to be 4 fold. Moreover, in data set [1] (MDP-ET 10 μg/mouse + rPvRII), the “rPvRII specific IgG antibody endpoint titer” value is recorded as 51200 dilution. For the same molecule, the “TH1:TH2 index ([IgG2a+IgG3]/2)/(IgG1)” value in data set [2] was determined as 10. In addition, at human NOD2, the concentration for a half-maximal effect (EC50) (usually the concentration at which the effect is half-maximal) was 421 nM.
